Data as given in PubChem BioAssay AID2060904 (Molecular Pharmacology Branch, DTP, NCI, 2025).

Tested on: 349418-098-R-PDC complex spheroid viability
Experiment: Anticancer human tumor 349418-098-R-PDC patient-derived lung adenocarcinoma cell line growth inhibition [RAS]
Conditions: for IC50: curve of first compound; for viability, T/C: stronger effect = lower value
Procedure, shortened: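 Tumour cells grown as complex spheroids with HUVEC endothelial cells and mesenchymal stem cells, treated with RAS pathway inhibitor combinations. Each agent spans half-log steps from near clinical Cmax, or 10 microM where Cmax is unknown.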

[1] = second compound 0.00316 µM, first compound 0.000949 µM
[2] = second compound 0.00316 µM, first compound 0.003 µM
[3] = second compound 0.00316 µM, first compound 0.00949 µM
[4] = second compound 0.00316 µM, first compound 0.03 µM
[5] = second compound 0.00316 µM, first compound 0.0949 µM
[6] = second compound 0.00316 µM, first compound 0.3 µM
[7] = second compound 0.01 µM, first compound 0.000949 µM
[8] = second compound 0.01 µM, first compound 0.003 µM
[9] = second compound 0.01 µM, first compound 0.00949 µM
[10] = second compound 0.01 µM, first compound 0.03 µM
[11] = second compound 0.01 µM, first compound 0.0949 µM
[12] = second compound 0.01 µM, first compound 0.3 µM
[13] = second compound 0.0316 µM, first compound 0.000949 µM
[14] = second compound 0.0316 µM, first compound 0.003 µM
[15] = second compound 0.0316 µM, first compound 0.00949 µM
[16] = second compound 0.0316 µM, first compound 0.03 µM
[17] = second compound 0.0316 µM, first compound 0.0949 µM
[18] = second compound 0.0316 µM, first compound 0.3 µM
[19] = second compound 0.1 µM, first compound 0.000949 µM
[20] = second compound 0.1 µM, first compound 0.003 µM
[21] = second compound 0.1 µM, first compound 0.00949 µM
[22] = second compound 0.1 µM, first compound 0.03 µM
[23] = second compound 0.1 µM, first compound 0.0949 µM
[24] = second compound 0.1 µM, first compound 0.3 µM
[25] = second compound 0.316 µM, first compound 0.000949 µM
[26] = second compound 0.316 µM, first compound 0.003 µM
[27] = second compound 0.316 µM, first compound 0.00949 µM
[28] = second compound 0.316 µM, first compound 0.03 µM
[29] = second compound 0.316 µM, first compound 0.0949 µM
[30] = second compound 0.316 µM, first compound 0.3 µM
[31] = second compound 1 µM, first compound 0.000949 µM
[32] = second compound 1 µM, first compound 0.003 µM
[33] = second compound 1 µM, first compound 0.00949 µM
[34] = second compound 1 µM, first compound 0.03 µM
[35] = second compound 1 µM, first compound 0.0949 µM
[36] = second compound 1 µM, first compound 0.3 µM
[37] = second compound 0.000949 µM, first compound 0.00316 µM
[38] = second compound 0.000949 µM, first compound 0.01 µM
[39] = second compound 0.000949 µM, first compound 0.0316 µM
[40] = second compound 0.000949 µM, first compound 0.1 µM
[41] = second compound 0.000949 µM, first compound 0.316 µM
[42] = second compound 0.000949 µM, first compound 1 µM
[43] = second compound 0.003 µM, first compound 0.00316 µM
[44] = second compound 0.003 µM, first compound 0.01 µM
[45] = second compound 0.003 µM, first compound 0.0316 µM
[46] = second compound 0.003 µM, first compound 0.1 µM
[47] = second compound 0.003 µM, first compound 0.316 µM
[48] = second compound 0.003 µM, first compound 1 µM
[49] = second compound 0.00949 µM, first compound 0.00316 µM
[50] = second compound 0.00949 µM, first compound 0.01 µM
[51] = second compound 0.00949 µM, first compound 0.0316 µM
[52] = second compound 0.00949 µM, first compound 0.1 µM
[53] = second compound 0.00949 µM, first compound 0.316 µM
[54] = second compound 0.00949 µM, first compound 1 µM
[55] = second compound 0.03 µM, first compound 0.00316 µM
[56] = second compound 0.03 µM, first compound 0.01 µM
[57] = second compound 0.03 µM, first compound 0.0316 µM
[58] = second compound 0.03 µM, first compound 0.1 µM
[59] = second compound 0.03 µM, first compound 0.316 µM
[60] = second compound 0.03 µM, first compound 1 µM
[61] = second compound 0.0949 µM, first compound 0.00316 µM
[62] = second compound 0.0949 µM, first compound 0.01 µM
[63] = second compound 0.0949 µM, first compound 0.0316 µM
[64] = second compound 0.0949 µM, first compound 0.1 µM
[65] = second compound 0.0949 µM, first compound 0.316 µM
[66] = second compound 0.0949 µM, first compound 1 µM
[67] = second compound 0.3 µM, first compound 0.00316 µM
[68] = second compound 0.3 µM, first compound 0.01 µM
[69] = second compound 0.3 µM, first compound 0.0316 µM
[70] = second compound 0.3 µM, first compound 0.1 µM
[71] = second compound 0.3 µM, first compound 0.316 µM
[72] = second compound 0.3 µM, first compound 1 µM
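Also: spheroids exposed to compound for seven days before viability readout.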

## CC1(C)CCC(Nc2ncc(C(F)(F)F)c(-c3c[nH]c4c(P(C)(C)=O)c(C#N)ccc34)n2)CN1 (stereo not drawn) + C=CC(=O)N1CCN(c2nc(OCC3CCCN3C)nc3c(F)c(-c4nc(N)cc(C)c4C(F)(F)F)c(Cl)cc23)C(C)C1
Second compound 0.00316 µM
  IC50: 1.25 nM
Second compound 0.01 µM
  IC50: 1.19 nM
Second compound 0.0316 µM
  IC50: < 0.949 nM
Second compound 0.1 µM
  IC50: 1.07 nM
Second compound 0.316 µM
  IC50: 1.16 nM
Second compound 1 µM
  IC50: 1.27 nM
[1]
  viability, T/C: 57.1%
[2]
  viability, T/C: 27.2%
[3]
  viability, T/C: 15.7%
[4]
  viability, T/C: 9.16%
[5]
  viability, T/C: 9.76%
[6]
  viability, T/C: 8.19%
[7]
  viability, T/C: 56.4%
[8]
  viability, T/C: 24.6%
[9]
  viability, T/C: 16.1%
[10]
  viability, T/C: 9.39%
[11]
  viability, T/C: 12.1%
[12]
  viability, T/C: 7.38%
[13]
  viability, T/C: 44%
[14]
  viability, T/C: 23.3%
[15]
  viability, T/C: 18.3%
[16]
  viability, T/C: 11.6%
[17]
  viability, T/C: 11.7%
[18]
  viability, T/C: 8.91%
[19]
  viability, T/C: 53.1%
[20]
  viability, T/C: 25.3%
[21]
  viability, T/C: 12.4%
[22]
  viability, T/C: 14.6%
[23]
  viability, T/C: 13.2%
[24]
  viability, T/C: 8.82%
[25]
  viability, T/C: 54.9%
[26]
  viability, T/C: 29.1%
[27]
  viability, T/C: 14.6%
[28]
  viability, T/C: 12.8%
[29]
  viability, T/C: 13.3%
[30]
  viability, T/C: 9.31%
[31]
  viability, T/C: 58.9%
[32]
  viability, T/C: 24.2%
[33]
  viability, T/C: 15.7%
[34]
  viability, T/C: 14.2%
[35]
  viability, T/C: 10.3%
[36]
  viability, T/C: 7.97%

## CCc1c2c(nc3ccc(O)cc13)-c1cc3c(c(=O)n1C2)COC(=O)[C@]3(O)CC + C=CC(=O)N1CCN(c2nc(OCC3CCCN3C)nc3c(F)c(-c4nc(N)cc(C)c4C(F)(F)F)c(Cl)cc23)C(C)C1
Second compound 0.00316 µM
  IC50: 0.951 nM
Second compound 0.01 µM
  IC50: 1.8 nM
Second compound 0.0316 µM
  IC50: 1.75 nM
Second compound 0.1 µM
  IC50: 0.985 nM
Second compound 0.316 µM
  IC50: 1.2 nM
Second compound 1 µM
  IC50: 1.69 nM
[1]
  viability, T/C: 50%
[2]
  viability, T/C: 28.8%
[3]
  viability, T/C: 6.39%
[4]
  viability, T/C: 4.43%
[5]
  viability, T/C: 3.41%
[6]
  viability, T/C: 2.43%
[7]
  viability, T/C: 69.1%
[8]
  viability, T/C: 35%
[9]
  viability, T/C: 7.67%
[10]
  viability, T/C: 4.23%
[11]
  viability, T/C: 2.64%
[12]
  viability, T/C: 1.87%
[13]
  viability, T/C: 70.9%
[14]
  viability, T/C: 31.7%
[15]
  viability, T/C: 11.7%
[16]
  viability, T/C: 4.13%
[17]
  viability, T/C: 2.62%
[18]
  viability, T/C: 2.07%
[19]
  viability, T/C: 50.8%
[20]
  viability, T/C: 27.1%
[21]
  viability, T/C: 10.5%
[22]
  viability, T/C: 4.6%
[23]
  viability, T/C: 3.02%
[24]
  viability, T/C: 2.05%
[25]
  viability, T/C: 57.2%
[26]
  viability, T/C: 21.9%
[27]
  viability, T/C: 7.59%
[28]
  viability, T/C: 4.71%
[29]
  viability, T/C: 2.92%
[30]
  viability, T/C: 1.94%
[31]
  viability, T/C: 73.1%
[32]
  viability, T/C: 26.9%
[33]
  viability, T/C: 9.24%
[34]
  viability, T/C: 5.15%
[35]
  viability, T/C: 3.55%
[36]
  viability, T/C: 2.46%

## C=CC(=O)Nc1cc(Nc2nccc(-c3cn(C)c4ccccc34)n2)c(OC)cc1N(C)CCN(C)C + CCn1c(-c2cc(N3CCN(C)CC3)cnc2C(C)OC)c2c3cc(ccc31)-c1csc(n1)CC(NC(=O)C1CC1C)C(=O)N1CCCC(N1)C(=O)OCC(C)(C)C2
Second compound 0.000949 µM
  IC50: > 1000 nM
Second compound 0.003 µM
  IC50: > 1000 nM
Second compound 0.00949 µM
  IC50: > 1000 nM
Second compound 0.03 µM
  IC50: > 1000 nM
Second compound 0.0949 µM
  IC50: > 1000 nM
Second compound 0.3 µM
  IC50: > 1000 nM
[37]
  viability, T/C: 101%
[38]
  viability, T/C: 94.8%
[39]
  viability, T/C: 112%
[40]
  viability, T/C: 109%
[41]
  viability, T/C: 96.8%
[42]
  viability, T/C: 76%
[43]
  viability, T/C: 112%
[44]
  viability, T/C: 95.8%
[45]
  viability, T/C: 94.4%
[46]
  viability, T/C: 98.7%
[47]
  viability, T/C: 95%
[48]
  viability, T/C: 70.3%
[49]
  viability, T/C: 100%
[50]
  viability, T/C: 88.5%
[51]
  viability, T/C: 94.8%
[52]
  viability, T/C: 75.8%
[53]
  viability, T/C: 98.6%
[54]
  viability, T/C: 75.7%
[55]
  viability, T/C: 100%
[56]
  viability, T/C: 107%
[57]
  viability, T/C: 107%
[58]
  viability, T/C: 102%
[59]
  viability, T/C: 92.1%
[60]
  viability, T/C: 65.3%
[61]
  viability, T/C: 105%
[62]
  viability, T/C: 101%
[63]
  viability, T/C: 97.8%
[64]
  viability, T/C: 105%
[65]
  viability, T/C: 86.7%
[66]
  viability, T/C: 72.8%
[67]
  viability, T/C: 98.1%
[68]
  viability, T/C: 101%
[69]
  viability, T/C: 108%
[70]
  viability, T/C: 102%
[71]
  viability, T/C: 109%
[72]
  viability, T/C: 77.6%

## O=C(c1ccc(F)c(F)c1Nc1ccc(I)cc1F)N1CC(O)([C@@H]2CCCCN2)C1 + CCn1c(-c2cc(N3CCN(C)CC3)cnc2C(C)OC)c2c3cc(ccc31)-c1csc(n1)CC(NC(=O)C1CC1C)C(=O)N1CCCC(N1)C(=O)OCC(C)(C)C2
Second compound 0.000949 µM
  IC50: < 3.16 nM
Second compound 0.003 µM
  IC50: < 3.16 nM
Second compound 0.00949 µM
  IC50: < 3.16 nM
Second compound 0.03 µM
  IC50: < 3.16 nM
Second compound 0.0949 µM
  IC50: < 3.16 nM
Second compound 0.3 µM
  IC50: < 3.16 nM
[37]
  viability, T/C: 25.6%
[38]
  viability, T/C: 15.3%
[39]
  viability, T/C: 12.3%
[40]
  viability, T/C: 7.55%
[41]
  viability, T/C: 6.32%
[42]
  viability, T/C: 4.06%
[43]
  viability, T/C: 26.8%
[44]
  viability, T/C: 17.7%
[45]
  viability, T/C: 11%
[46]
  viability, T/C: 7.55%
[47]
  viability, T/C: 5.82%
[48]
  viability, T/C: 4.4%
[49]
  viability, T/C: 20%
[50]
  viability, T/C: 7.54%
[51]
  viability, T/C: 7.52%
[52]
  viability, T/C: 5.46%
[53]
  viability, T/C: 5.26%
[54]
  viability, T/C: 4.12%
[55]
  viability, T/C: 14.1%
[56]
  viability, T/C: 8.8%
[57]
  viability, T/C: 6.96%
[58]
  viability, T/C: 5.38%
[59]
  viability, T/C: 5.09%
[60]
  viability, T/C: 4.3%
[61]
  viability, T/C: 9.09%
[62]
  viability, T/C: 6.88%
[63]
  viability, T/C: 5.8%
[64]
  viability, T/C: 5.07%
[65]
  viability, T/C: 5.29%
[66]
  viability, T/C: 4.24%
[67]
  viability, T/C: 11.8%
[68]
  viability, T/C: 7.65%
[69]
  viability, T/C: 5.68%
[70]
  viability, T/C: 5.13%
[71]
  viability, T/C: 4.83%
[72]
  viability, T/C: 4.09%
